Our source for the IC50 values is ChEMBL document CHEMBL5357008, “Novel Pyrazolopyridine Inhibitors of Monoacylglycerol Lipase for the Treatment of Neurodegenerative Diseases and Neuroinflammation” (ACS Med Chem Lett, 2024).

As a reminder, the IC50 is the point on the concentration scale where inhibition reaches its midpoint.

The target of this test is T1, Monoglyceride lipase (Homo sapiens, UniProt Q99685).
T1 sequence (Q99685 whole entry): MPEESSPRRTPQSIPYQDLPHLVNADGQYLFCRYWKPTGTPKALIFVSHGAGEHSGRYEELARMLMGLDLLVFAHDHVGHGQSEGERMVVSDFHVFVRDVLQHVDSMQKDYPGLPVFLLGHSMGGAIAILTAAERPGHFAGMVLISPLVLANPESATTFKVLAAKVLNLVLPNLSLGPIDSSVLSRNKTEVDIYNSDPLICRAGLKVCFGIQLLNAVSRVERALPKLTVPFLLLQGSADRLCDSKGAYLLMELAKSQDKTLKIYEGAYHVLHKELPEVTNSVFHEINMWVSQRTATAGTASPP
Nature of the test: Inhibition of MAGL (unknown origin) using 2-arachidonoylglycerol as substrate preincubated with compound for 15 mins followed by substrate addition and measured after 30 mins by mass spectrometer analysis.

As to `C[C@H]1c2nn(C)c(-c3cc(F)cc(F)c3)c2CCN1C(=O)c1cc(F)cc(OCC2CNC(=O)O2)c1Cl` (stereo partly drawn), the IC50 came out at 2 nM.
The figure for `COc1cccc(C(=O)N2CCc3c(nn(C)c3-c3cc(Cl)cc(CS(N)(=O)=O)c3)[C@@H]2C)c1Cl` is 27 nM; for `CC1c2nn(C)c(-c3cc(F)cc(F)c3)c2CCN1C(=O)c1cc(F)cc(OCC2CNC(=O)C2)c1Cl` (stereo not drawn) it is 5 nM.
